Results on 5 compounds are retold here after paper PMC10574154, “Antioxidant and Anti-Aging Phytoconstituents from Faucaria tuberculosa: In Vitro and In Silico Studies” (Molecules, 2023).

The structures appear in SMILES notation. Converted amounts (≈) assume the structure as drawn.

The nature of experiment [1]: ABTS radical scavenging assay. It counts as biochemical. As to conditions: mean ± SD (n = 3).
Experiment [2] in a line: Ferric reducing/antioxidant power (FRAP) assay. It counts as biochemical. Conditions: mean ± SD (n = 3). The method, then:
The antioxidant activity of the isolated compounds was determined using ABTS and FRAP assays in triplicate, and the average values were considered.
Herein, antioxidant potential was measured based on the samples’ ability to reduce ferric to ferrous ion. This method relies on the reduction of ferricyanide relative to the sample. Samples (1 mL) were mixed with 2.5 mL of each of sodium phosphate buffer and K3Fe (CN)6, and then the reaction mixture was incubated (50 °C, 20 min). Afterward, 2.5 mL of trichloroacetic acid was added, and centrifugation (1000× g, 10 min) was carried out. Some 2.5 mL of the supernatant solution and an equal amount of deionized H2O and 0.5 mL of ferric chloride were then mixed, and the absorbance was recorded at 700 nm.

Consider `O=C1O[C@H]([C@@H](O)CO)C(O)=C1O` [Ascorbic acid, reference compound], for which the “IC50 Value ABTS Assay” value in experiment [1] is on record as 10.67 ± 0.85 µg/mL (≈ 60.6 µM). For the same compound, the “IC50 Value FRAP Assay” value in experiment [2] was 20.86 ± 1.28 µg/mL (≈ 118 µM).

In the case of `Oc1cc(O)cc(O)c1` [Compound 1, phloroglucinol], the “IC50 Value ABTS Assay” value in experiment [1] is 6.44 ± 0.47 µg/mL (≈ 51.1 µM). In experiment [2], the “IC50 Value FRAP Assay” value worked out at 12.89 ± 0.93 µg/mL (≈ 102 µM).

Regarding `OC[C@H]1O[C@@H](Oc2cc(O)cc(O)c2)[C@H](O)[C@@H](O)[C@@H]1O` [Compound 2, 3,5-dihydroxyphenyl β-D-glucopyranoside], the “IC50 Value ABTS Assay” value in experiment [1] is listed as 43.40 ± 3.18 µg/mL (≈ 151 µM). For the same compound, the “IC50 Value FRAP Assay” value in experiment [2] is listed as 64.52 ± 4.15 µg/mL (≈ 224 µM).

For the compound `COc1cc(-c2oc3cc(O)cc(O)c3c(=O)c2OC2OC(COC3OC(C)C(O)C(O)C3O)C(O)C(O)C2O)ccc1O` (stereo not shown) [Compound 3, isorhamnetin 3-O-rutinoside], the “IC50 Value ABTS Assay” value in experiment [1] is on record as 12.24 ± 0.61 µg/mL (≈ 19.6 µM). Moreover, the “IC50 Value FRAP Assay” value in experiment [2] came to 25.24 ± 2.03 µg/mL (≈ 40.4 µM).

In the case of `COc1cc(-c2oc3cc(O)cc(O)c3c(=O)c2OC2OC(COC3OC(C)C(OC4OC(C)C(O)C(O)C4O)C(O)C3O)C(O)C(O)C2O)ccc1O` (stereo not drawn) [Compound 5, Isorhamnetin 3-O-[α-rhamnopyranosyl-(1→4)-α-rhamnopyranosyl-(1→6)-β-glucopyranoside]], the “IC50 Value ABTS Assay” value in experiment [1] is given as 18.19 ± 2.94 µg/mL (≈ 23.6 µM). For the same compound, the “IC50 Value FRAP Assay” value in experiment [2] stood at 35.04 ± 2.89 µg/mL (≈ 45.5 µM).
